Read-outs that look alike come from different tables or passages of the source.
Columns and labels:
NL4-3 HIV-1 strain = experiment: Multiple-round infection assay in MT4 cells, NL4-3; type: cell-based; conditions: MT4 cells
[1] = tested on: VSV-G-pseudotyped NL4-3Δenv-luc; experiment: microbe, parasite or virus in culture; type: cell-based, HIV-1; conditions: Human immunodeficiency virus 1, NL43, MT4, read-out: EC50 in single-round infection
[2] = tested on: HIV-1 strains resistant to INSTIs, NRTIs, NNRTIs or PIs; type: cell-based
Description: To this end, we used both recombinant viruses constructed by introducing described drug resistance mutations into NL4-3 HIV-1 clone as well as drug-resistant clinical HIV-1 isolates.
(§1) MT4 cells growing exponentially at the density of 10^6/mL were infected with HIV-1 strain NL4-3 at a multiplicity of infection (MOI) of 0.001 for 2 h in the presence of different concentrations of compounds, and the CellTiter-Glo luminescent reagent (Promega) was used to quantify cell viability as described previously ([12]).

[3] = tested on: primary HIV-1 isolates with polymorphisms at IN positions 124 and 125; experiment: Multiple-round infection of MT4 cells with primary HIV-1 isolates polymorphic at IN positions 124 and 125; type: cell-based; conditions: primary isolate
Description: Next, we evaluated the potency of the BDM-2 series of INLAIs against several primary HIV-1 isolates with polymorphisms at IN positions 124 and 125.
as §1

[4] = target: HIV-1 IN-LEDGF/p75 interaction (Human immunodeficiency virus type 1 group M subtype B, UniProt P12497); experiment: biochemical
HIV-1 IN = target: T1, HIV-1 IN (Human immunodeficiency virus type 1 group M subtype B, UniProt P12497); experiment: HTRF IN multimerization assay; type: biochemical; conditions: mean ± SD
T1 construct: made in house
Description: A key property of INLAIs is the ability to promote HIV-1 IN homo-multimerization ([39][–][42]). […] The maximal signal (plateau) in our IN aggregation assay corresponds to the highest HTRF signal increase under saturating INLAI concentration, relative to baseline level. Thus, MUT916, MUT884, MUT871, and MUT872 increased HIV-1 IN aggregation 3.7 to 4.4-fold, while BDM-2, BI-224436, and S-I-82 did so 5 to 6-fold (Table 1).

[5] = Cytotoxicity assay in MT4 cells; type: cell-based; conditions: human, MT4 cells (proliferating human T-cell line), CellTiter-Glo
Description: Growth inhibition was monitored in a proliferating human T-cell line (MT4) with different concentrations of compounds, using the CellTiter-Glo luminescent reagent (Promega), as previously described ([12]).

[6] = tested on: lab-adapted and clinical HIV-1 isolates; experiment: Infection assays in primary T CD4+ lymphocytes; type: cell-based; conditions: Human immunodeficiency virus 1, Lymphocyte
[7] = tested on: recombinant NL4-3 viruses with polymorphisms at IN positions 124 and 125; experiment: Multiple-round infection of MT4 cells with recombinant NL4-3 viruses polymorphic at IN positions 124 and 125; type: cell-based, HIV-1
Description: Located on the HIV-1 IN CCD dimerization interface, the principal INLAI binding pocket overlaps with a hot spot of amino acid sequence polymorphism involving IN residues 124 and 125 ([16]). To test if the new INLAIs maintained antiviral activity against major polymorphisms, we introduced all major combinations of residues found in circulating HIV-1 strains at positions 124 and 125 into NL4-3 HIV-1 molecular clone. In total, we evaluated 15 such combinations that collectively covered 98% of all HIV-1 clade polymorphisms involving these positions ([48]). To gauge effects on the antiviral activity, we calculated the EC50 fold change (FC) relative to wild type NL4-3 HIV-1 strain that features Thr124 and Thr125 (TT; specific polymorphisms are referred to by a single letter amino acid code).
as §1

HXB2 HIV-1 strain = experiment: Multiple-round infection assay in MT4 cells, HXB2; type: cell-based; conditions: Human immunodeficiency virus 1, HXB2; multiple-round infection, MT4 cells; mean ± SD, n > 5; read-out: EC50 HXB2
Description: Antiretroviral activity of BDM-2 and its analogs was first evaluated in lymphoblastoid cell line MT4 and in primary human T lymphocytes using NL4-3 and HXB2 laboratory HIV-1 isolates.
as §1

[8] = tested on: NL4-3 HIV-1 with INLAI-selected IN single point mutations; type: cell-based
[9] = target: CCD of HIV-1 IN and IBD of LEDGF/p75 (Human immunodeficiency virus type 1 group M subtype B, UniProt P12497); experiment: biochemical
[10] = INSTI-resistant, NL4-3 background
[11] = INSTI-resistant, primary patient-derived strain

Cc1nc2ccccc2c(-c2ccc3c4c(ccnc24)CCO3)c1[C@H](OC(C)(C)C)C(=O)O [BI-224436, reference compound]
EC90 (NL4-3 HIV-1 strain; Human immunodeficiency virus 1, NL43, multiple-round infection, from dose response curves, read-out: EC90 NL4-3): 77 ± 34 nM | EC50 (NL4-3 HIV-1 strain; Human immunodeficiency virus 1, NL43, multiple-round infection, mean ± SD, n > 5, read-out: EC50 NL4-3): 51 ± 17 nM | Selectivity index CC50/EC50 NL4-3 (NL4-3 HIV-1 strain): >3,921 | EC50 [1]: 1400 ± 300 nM | Fold change in EC50 relative to NL4-3, E92Q [2, 10]: 1 | Fold change in EC50 relative to NL4-3, G140S [2, 10]: 1 | Fold change in EC50 relative to NL4-3, G140S/Q148H [2, 10]: 1 | Fold change in EC50 relative to NL4-3, N155H [2, 10]: 1 | Fold change in EC50 relative to NL4-3, Q148H [2, 10]: 1 | Fold change in EC50 relative to NL4-3, Y143R [2, 10]: 1 | Fold change in EC50 relative to NL4-3, E92Q/N155H (pat.) [2, 11]: 1 | Fold change in EC50 relative to NL4-3, G140S/Q148H (pat.) [2, 11]: 1 | Fold change in EC50 relative to NL4-3, T97A/N155H (pat.) [2, 11]: 1 | Fold change in EC50 relative to NL4-3, NLAY351717 ([2]; NRTI-resistant clone): 1 | Fold change in EC50 relative to NL4-3, NLAY351753 ([2]; NRTI/NNRTI-resistant clone): 1 | Fold change in EC50 relative to NL4-3, K103N/Y181C ([2]; NRTI/NNRTIs group, NL4-3 background): 1 | Fold change in EC50 relative to NL4-3, ARP-4595 ([2]; PI-resistant virus): 0.4 | Fold change in EC50 relative to NL4-3, ARP-4596 ([2]; PI-resistant virus): 0.5 | Fold change in EC50 relative to NL4-3, ARP-11801 ([2]; PI-resistant virus): 1 | Fold change in EC50 relative to NL4-3, ARP-11803 ([2]; PI-resistant virus): 1 | Fold change in EC50 relative to NL4-3, ARP-11807 ([2]; PI-resistant virus): 1 | Fold change in EC50 relative to NL4-3, ARP-11808 ([2]; PI-resistant virus): 1 | Fold change in EC50 relative to parental NL4-3, CAM2BBY (CRF02) ([3]; IN 124/125 AA): 2 | Fold change in EC50 relative to parental NL4-3, E0836M4 (D) ([3]; IN 124/125 AA): 1 | Fold change in EC50 relative to parental NL4-3, KER2008 (A) ([3]; IN 124/125 AA): 1 | Fold change in EC50 relative to parental NL4-3, NP1525 (CRF01) ([3]; IN 124/125 AA): 1 | Fold change in EC50 relative to parental NL4-3, NP1695 (CRF02) ([3]; IN 124/125 AA): 2 | Fold change in EC50 relative to parental NL4-3, TZA125 (C) ([3]; IN 124/125 AA): 0.5 | Fold change in EC50 relative to parental NL4-3, KSM4030 (A) ([3]; IN 124/125 GA): 1 | Fold change in EC50 relative to parental NL4-3, vGA (C) ([3]; IN 124/125 GA): 2 | Fold change in EC50 relative to parental NL4-3, 99ET14 (C) ([3]; IN 124/125 NA): 1 | Fold change in EC50 relative to parental NL4-3, NP1538 (B) ([3]; IN 124/125 NA): 1 | Fold change in EC50 relative to parental NL4-3, vNA_1 (B) ([3]; IN 124/125 NA): 2 | Fold change in EC50 relative to parental NL4-3, vNA_2 (CRF02) ([3]; IN 124/125 NA): 2 | Fold change in EC50 relative to parental NL4-3, vNV (B) ([3]; IN 124/125 NV): 1 | Fold change in EC50 relative to parental NL4-3, vSA_1 (B) ([3]; IN 124/125 SA): 3 | Fold change in EC50 relative to parental NL4-3, vSA_2 (CRF02) ([3]; IN 124/125 SA): 2 | Fold change in EC50 relative to parental NL4-3, vTA_1 (B) ([3]; IN 124/125 TA): 2 | Fold change in EC50 relative to parental NL4-3, vTA_2 (CRF02) ([3]; IN 124/125 TA): 2 | IC50 [4]: 90 ± 19 nM | AC50 (HIV-1 IN; concentration for 50% maximum activation of multimerization): 34 ± 11 nM | IN multimerization Plateau (HIV-1 IN; maximum multimerization reached versus baseline): 670 ± 210% | CC50 [5]: > 200000 nM | EC50 ([6]; read-out: EC50 33913N (B)): 20 ± 9 nM | EC50 ([6]; read-out: EC50 HXB2 (B)): 14 ± 7 nM | EC50 ([6]; read-out: EC50 KER2008 (A)): 37 ± 12 nM | EC50 ([6]; read-out: EC50 NL4-3 (B)): 100 ± 80 nM | EC50 ([6]; read-out: EC50 NP1525 (CRF01_AE)): 61 ± 35 nM | EC50 ([6]; read-out: EC50 NP1538 (B)): 66 ± 42 nM | Fold change in EC50 relative to parental NL4-3, AA ([7]; recombinant NL4-3, IN 124/125 AA): 1 | Fold change in EC50 relative to parental NL4-3, AM ([7]; recombinant NL4-3, IN 124/125 AM): 0.4 | Fold change in EC50 relative to parental NL4-3, AT ([7]; recombinant NL4-3, IN 124/125 AT): 1 | Fold change in EC50 relative to parental NL4-3, AV ([7]; recombinant NL4-3, IN 124/125 AV): 1 | Fold change in EC50 relative to parental NL4-3, GA ([7]; recombinant NL4-3, IN 124/125 GA): 1 | Fold change in EC50 relative to parental NL4-3, GT ([7]; recombinant NL4-3, IN 124/125 GT): 2 | Fold change in EC50 relative to parental NL4-3, NA ([7]; recombinant NL4-3, IN 124/125 NA): 1 | Fold change in EC50 relative to parental NL4-3, NT ([7]; recombinant NL4-3, IN 124/125 NT): 1 | Fold change in EC50 relative to parental NL4-3, NV ([7]; recombinant NL4-3, IN 124/125 NV): 1 | Fold change in EC50 relative to parental NL4-3, SA ([7]; recombinant NL4-3, IN 124/125 SA): 1 | Fold change in EC50 relative to parental NL4-3, ST ([7]; recombinant NL4-3, IN 124/125 ST): 1 | Fold change in EC50 relative to parental NL4-3, TA ([7]; recombinant NL4-3, IN 124/125 TA): 1 | Fold change in EC50 relative to parental NL4-3, TM ([7]; recombinant NL4-3, IN 124/125 TM): 0.4 | Fold change in EC50 relative to parental NL4-3, TV ([7]; recombinant NL4-3, IN 124/125 TV): 1 | EC50 (HXB2 HIV-1 strain): 23 ± 8.4 nM | EC50 fold change compared to wild type NL4-3, A128T [8]: 6 | EC50 fold change compared to wild type NL4-3, H171Q [8]: 4 | EC50 fold change compared to wild type NL4-3, N222K [8]: 2 | EC50 fold change compared to wild type NL4-3, T174I [8]: 706 | EC50 fold change compared to wild type NL4-3, Y99H [8]: 2 | IC50 [9]: 73 ± 13 nM

Source: article PMC10353390, “Biological and Structural Analyses of New Potent Allosteric Inhibitors of HIV-1 Integrase” (Antimicrobial Agents and Chemotherapy, 2023)
